In US8513381B2, “Melanocortin analogs with antimicrobial activity” (Fondazione IRCCS Ca' Granda-Ospedale Maggiore Policlinico, priority 2009, dated 2013):
In brackets after ≈: the same amount, converted by molar mass. Read-outs that look alike come from different tables or passages of the source. Non-standard residues stand in square brackets, D forms with d. Residues, ends and D or L forms follow the SMILES beside them. d2Nal = N[C@H](Cc1ccc2ccccc2c1)C(=O)O; Tle = CC(C)(C)[C@H](N)C(=O)O; Ac6c = NC1(C(=O)O)CCCCC1; Ac5c = NC1(C(=O)O)CCCC1; Ac4c = NC1(C(=O)O)CCC1; Aib = CC(C)(N)C(=O)O

Assays:
C. albicans = format: cell-based, Candida albicans
Experimental: (§1) Two Candida albicans isolates were purchased from the ATCC (No. 24433 and 76615). The other yeast isolates were obtained from the collection of Fondazione Ospedale Maggiore Policlinico, Mangiagalli e Regina Elena, Milano. The collection included C. albicans (7 isolates), C. glabrata (3 isolates), and C. krusei (3 isolates). Antifungal susceptibility testing was performed using the broth microdilution method according to the NCCLS M27-A guidelines (National Committee for Clinical Laboratory Standards. 1997, Reference method for broth dilution antifungal susceptibility testing of yeasts and approved standard NCCLS document M27-A. National Committee for Clinical Laboratory Standards, Wayne, Pa.). The organisms were removed from frozen glycerol stock (10% sterile glycerol suspensions stored at −70° C.), subcultured onto Sabouraud's dextrose plates, and incubated at 35° C. After 48 h of incubation, the plates were inspected for purity. To prepare stationary growth phase yeast, a colony was taken from the agar plate and transferred into 5 mL Sabouraud-dextrose broth and incubated for 48 h at 35° C. Cells were centrifuged at 1,000×g for 10 min and the pellet was washed twice with distilled water. Cells were counted and suspended in RPMI 1640 medium buffered to pH 7.0 with 0.165 mol l^−1 morpholinepropanesulphonic acid (MOPS) buffer (Sigma) to obtain the two times test inoculum (1×10^3 to 5×10^3 CFU/mL). Each well of 96 U-shaped well-plates received 100 μl of each antifungal peptides in concentrations from 10^−4 to 7.8×10^−7 M and 100 μl of the two-times inoculum to a final yeast concentration of 0.5×10−[…] cells ml^−1
(§2) The MIC90, i.e. the minimum inhibitory concentrations endpoint determined as 90% reduction in turbidity measured using a spectrophotometer (Titertek multiscan at 690 nm wave length).

C. glabrata = format: cell-based, Candida glabrata
Experimental: as §1, §2

C. krusei = format: cell-based, Candida krusei
Experimental: as §1, §2

| Molecule | MIC 90 at 48 hours (C. albicans) | MIC 90 at 48 hours (C. albicans; C. albicans 000954, 35° C.) | MIC 90 at 48 hours (C. albicans; C. albicans 983201-R1, 35° C.) | MIC 90 at 48 hours (C. albicans; C. albicans 991185, 35° C.) | MIC 90 at 48 hours (C. albicans; C. albicans 994199, 35° C.) | MIC 90 at 48 hours (C. albicans; C. albicans 995147, 35° C.) | MIC 90 at 48 hours (C. albicans; C. albicans 995439, 35° C.) | MIC 90 at 48 hours (C. albicans; C. albicans ATCC 24433, 35° C.) | MIC 90 at 48 hours (C. albicans; C. albicans ATCC 76615, 35° C.) | MIC 90 at 48 hours (C. glabrata; C. glabrata 18012, 35° C.) | MIC 90 at 48 hours (C. glabrata; C. glabrata 995651, 35° C.) | MIC 90 at 48 hours (C. glabrata; C. glabrata 995667, 35° C.) | MIC 90 at 48 hours (C. krusei) | MIC 90 at 48 hours (C. albicans; C. albicans 011587, 35° C.) | MIC 90 at 48 hours (C. krusei; C. krusei 995668, 35° C.) | MIC 90 at 48 hours (C. krusei; C. krusei 004490, 35° C.) | MIC 90 at 48 hours (C. krusei; C. krusei 991388, 35° C.) |
| --- | --- | --- | --- | --- | --- | --- | --- | --- | --- | --- | --- | --- | --- | --- | --- | --- | --- |
| CC(C)[C@H](NC(=O)[C@H](Cc1ccccc1)NC(=O)[C@H](CCCCN)NC(=O)C(C)(C)NC(=O)[C@H](Cc1c[nH]c2ccccc12)NC(=O)[C@H](CCCNC(=N)N)NC(=O)[C@@H](Cc1ccc2ccccc2c1)NC(=O)[C@@H](N)Cc1c[nH]cn1)C(N)=O [MSH0702, H-His-D(2)-Nal-Arg-Trp-Aib-Lys-Phe-Val-NH2] (H-H[d2Nal]RW[Aib]KFV-NH2) | 115 µg/mL (≈ 99.7 µM) | no | no | no | no | no | no | no | no | no | no | no | 115 µg/mL (≈ 99.7 µM) | – | – | – | – |
| CC(C)[C@H](NC(=O)[C@H](Cc1ccccc1)NC(=O)[C@H](CCCCN)NC(=O)C1(NC(=O)[C@H](Cc2c[nH]c3ccccc23)NC(=O)[C@H](CCCNC(=N)N)NC(=O)[C@@H](Cc2ccc3ccccc3c2)NC(=O)[C@@H](N)Cc2c[nH]cn2)CCCC1)C(N)=O [MSH0705, H-His-D(2)-Nal-Arg-Trp-Cpa-Lys-Phe-Val-NH2] (H-H[d2Nal]RW[Ac5c]KFV-NH2) | – | – | – | – | – | – | – | – | – | no | no | no | 117 µg/mL (≈ 99.2 µM) | – | – | – | – |
| CC(C)[C@H](NC(=O)[C@H](Cc1ccccc1)NC(=O)[C@H](CCCCN)NC(=O)[C@@H](NC(=O)[C@H](Cc1c[nH]c2ccccc12)NC(=O)[C@H](CCCNC(=N)N)NC(=O)[C@@H](Cc1ccc2ccccc2c1)NC(=O)[C@@H](N)Cc1c[nH]cn1)C(C)(C)C)C(N)=O [MSH0707, H-His-D(2)-Nal-Arg-Trp-tBuGly-Lys-Phe-Val-NH2] (H-H[d2Nal]RW[Tle]KFV-NH2) | 118 µg/mL (≈ 99.9 µM) | no | no | no | no | no | – | no | no | no | no | no | 118 µg/mL (≈ 99.9 µM) | no | no | – | – |
| CC(C)[C@H](NC(=O)[C@H](Cc1ccccc1)NC(=O)[C@H](CCCCN)NC(=O)C1(NC(=O)[C@H](Cc2c[nH]c3ccccc23)NC(=O)[C@H](CCCNC(=N)N)NC(=O)[C@@H](Cc2ccc3ccccc3c2)NC(=O)[C@@H](N)Cc2c[nH]cn2)CCC1)C(N)=O [MSH0709, H-His-D(2)-Nal-Arg-Trp-Cybu-Lys-Phe-Val-NH2] (H-H[d2Nal]RW[Ac4c]KFV-NH2) | 117 µg/mL (≈ 100 µM) | no | no | – | – | no | – | no | no | no | no | no | 117 µg/mL (≈ 100 µM) | – | – | – | – |
| CC(C)[C@H](NC(=O)[C@H](Cc1ccccc1)NC(=O)[C@H](CCCCN)NC(=O)C1(NC(=O)[C@H](Cc2c[nH]c3ccccc23)NC(=O)[C@H](CCCNC(=N)N)NC(=O)[C@@H](Cc2ccc3ccccc3c2)NC(=O)[C@@H](N)Cc2c[nH]cn2)CCCCC1)C(N)=O [MSH0712, H-His-D(2)-Nal-Arg-Trp-Aoca-Lys-Phe-Val-NH2] (H-H[d2Nal]RW[Ac6c]KFV-NH2) | 60 µg/mL (≈ 50.3 µM) | – | – | – | – | – | – | – | – | no | no | no | – | – | – | – | – |
| CC(C)[C@H](NC(=O)[C@H](Cc1ccccc1)NC(=O)[C@H](CCCCN)NC(=O)[C@H](Cc1ccccc1)NC(=O)[C@H](Cc1c[nH]c2ccccc12)NC(=O)[C@H](CCCNC(=N)N)NC(=O)[C@@H](Cc1ccc2ccccc2c1)NC(=O)[C@@H](N)Cc1c[nH]cn1)C(N)=O [MSH0713, H-His-D(2)-Nal-Arg-Trp-Phe-Lys-Phe-Val-NH2] (H-H[d2Nal]RWFKFV-NH2) | – | – | – | – | – | – | – | – | – | no | no | no | 122 µg/mL (≈ 100 µM) | – | no | – | – |
| H-His-D(2)-Nal-Arg-Trp-Acpc-Lys-Phe-Val-NH2 [MSH0706] | – | no | no | no | no | no | no | no | no | no | no | – | – | no | no | no | no |
| H-His-D(2)-Nal-Arg-Trp-Ala-Lys-Phe-Val-NH2 [MSH0703] | – | no | no | no | no | no | no | no | no | no | no | no | – | no | no | no | no |
| H-His-D(2)-Nal-Arg-Trp-Gly-Gly-Lys-Phe-Val-NH2 [MSH0701] | – | no | no | no | no | no | no | no | no | no | no | no | – | no | no | no | no |
| H-His-D(2)-Nal-Arg-Trp-β-AA-Lys-Phe-Val-NH2 [MSH0710] | – | no | no | no | no | no | no | no | no | no | no | no | – | no | no | no | no |
